Results from ChEMBL document CHEMBL5126496, “A novel compound active against SARS-CoV-2 targeting uridylate-specific endoribonuclease (NendoU/NSP15): in silico and in vitro investigations” (RSC Med Chem, 2021).
pIC50: −log10 of the molar value.

Tests used:
SARS-CoV-2 [1] = test: Antiviral activity against SARS-CoV-2 MT020880 infected in African green monkey Vero cells measured after 48 hrs by spread assay; type: functional, organism-based, Severe acute respiratory syndrome coronavirus 2
SARS-CoV-2 [2] = test: Antiviral activity against SARS-CoV-2 MT020880 infected in African green monkey Vero cells assessed as inhibition of viral entry preincubated for 1 hr at 10 uM; type: functional
Vero = test: Cytotoxicity against African green monkey Vero cells at 50 uM; type: toxicity, cell-based; details: chlorocebus sabaeus
SARS-CoV-2 [3] = test: Antiviral activity against SARS-CoV-2 MT020880 infected in African green monkey Vero cells assessed as inhibition of viral entry preincubated for 1 hr; type: functional, organism-based, Severe acute respiratory syndrome coronavirus 2
[4] = Severe acute respiratory syndrome coronavirus 2, MT020880, Vero

Compound	pIC50 (SARS-CoV-2 [1]; Severe acute respiratory syndrome coronavirus 2, MT020880, Vero, 48 h)	inhibition at 10 µM (SARS-CoV-2 [2]; [4])	Activity (Vero)	pIC50 (SARS-CoV-2 [3]; [4])	pIC50 (SARS-CoV-2 [1]; vero)	pIC50 (SARS-CoV-2 [3]; vero)	inhibition (SARS-CoV-2 [2]; Severe acute respiratory syndrome coronavirus 2)
CC(C)(C)c1ccc(CN2CCN(C[C@H](O)[C@@H](N)Cc3ccccc3)CC2)cc1	5.07	90%	Non-Toxic	5.14	–	–	–
IVERMECTIN [listing 1 of 2 here]	–	–	Toxic	–	5.26	5.30	–
IVERMECTIN [listing 2 of 2 here]	–	–	–	–	–	–	90%
